For the test, the target named is ROCK2 (Homo sapiens (Human), UniProt O75116). Briefly: ROCK2 assay (peptide phosphorylation, LABCHIP 3000 Reader). The class given is biochemical. The settings on record: 5 μM ATP, 1.5 μM peptide substrate, dose-response. Here is the method:
After incubation, the reaction was terminated by the addition of EDTA and the phosphorylated and non-phosphorylated peptides separated using a LABCHIP®3000 Reader (Caliper Life Sciences). […] Compounds were tested in dose-response format, and the inhibition of kinase activity was calculated at each concentration of compound. […] Representative Examples were tested in the ROCK2 assay described above and found having ROCK2 inhibitory activity.
Sequence of ROCK2 (O75116 whole entry, species assumed): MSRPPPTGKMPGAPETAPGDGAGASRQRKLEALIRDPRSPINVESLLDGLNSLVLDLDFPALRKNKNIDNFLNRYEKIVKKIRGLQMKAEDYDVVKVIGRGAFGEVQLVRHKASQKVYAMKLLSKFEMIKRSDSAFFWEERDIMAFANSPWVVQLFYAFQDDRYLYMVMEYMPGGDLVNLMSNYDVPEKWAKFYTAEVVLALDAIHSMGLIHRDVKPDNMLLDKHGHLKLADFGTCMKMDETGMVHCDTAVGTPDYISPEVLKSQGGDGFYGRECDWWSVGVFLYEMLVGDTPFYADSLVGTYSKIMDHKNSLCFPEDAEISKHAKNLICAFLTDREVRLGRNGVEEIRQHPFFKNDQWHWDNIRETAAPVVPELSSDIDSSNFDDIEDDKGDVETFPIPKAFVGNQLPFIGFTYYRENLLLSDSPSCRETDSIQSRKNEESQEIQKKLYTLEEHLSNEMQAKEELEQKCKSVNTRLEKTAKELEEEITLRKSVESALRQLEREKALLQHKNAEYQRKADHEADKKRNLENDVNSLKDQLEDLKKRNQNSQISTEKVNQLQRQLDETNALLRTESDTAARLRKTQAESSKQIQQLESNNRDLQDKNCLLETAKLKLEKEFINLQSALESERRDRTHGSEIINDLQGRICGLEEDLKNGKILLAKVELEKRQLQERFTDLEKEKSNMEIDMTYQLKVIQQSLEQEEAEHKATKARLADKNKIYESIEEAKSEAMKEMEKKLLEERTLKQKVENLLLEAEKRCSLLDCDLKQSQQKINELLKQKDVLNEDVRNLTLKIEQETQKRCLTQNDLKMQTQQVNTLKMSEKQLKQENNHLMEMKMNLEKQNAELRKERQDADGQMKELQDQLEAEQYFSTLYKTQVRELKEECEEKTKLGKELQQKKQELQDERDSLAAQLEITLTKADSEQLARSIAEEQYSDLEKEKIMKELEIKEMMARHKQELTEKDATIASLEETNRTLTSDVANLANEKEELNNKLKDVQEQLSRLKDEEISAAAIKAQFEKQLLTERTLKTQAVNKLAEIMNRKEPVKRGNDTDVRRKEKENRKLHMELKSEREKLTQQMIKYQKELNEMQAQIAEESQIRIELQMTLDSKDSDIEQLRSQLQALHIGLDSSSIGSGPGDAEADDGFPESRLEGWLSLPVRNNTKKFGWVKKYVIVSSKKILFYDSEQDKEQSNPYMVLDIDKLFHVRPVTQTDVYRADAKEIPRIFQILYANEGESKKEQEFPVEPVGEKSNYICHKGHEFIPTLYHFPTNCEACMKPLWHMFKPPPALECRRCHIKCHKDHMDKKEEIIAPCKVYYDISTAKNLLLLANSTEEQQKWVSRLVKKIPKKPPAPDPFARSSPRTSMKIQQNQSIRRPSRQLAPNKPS
Broadly, the IC50 is the concentration that inhibits the measured activity by half. `CC(C)(O)COc1ccc2c(C(=O)N[C@H]3C[C@]4(C3)C[C@H](Oc3nn5c(-c6ccccc6)cccc5c3C(N)=O)C4)nn(C(F)F)c2c1` (stereo partly shown) [Example 134, 1-(difluoromethyl)-6-(2-hydroxy-2-methylpropoxy)-N-[(4s)-6-({3-carbamoyl-7-phenylpyrazolo[1,5-a]pyridin-2-yl}oxy)spiro[3.3]heptan-2-yl]-1H-indazole-3-carboxamide] had an IC50 of 143 nM. This lies in the sub-micromolar range.

`Cn1ncc2cc(C(N)=O)c(O[C@H]3C[C@@]4(C[C@H](NC(=O)c5nnc(-c6ccc(C(F)(F)F)cc6)s5)C4)C3)nc21` (stereo partly shown) [Example 149, N-[(4s)-6-({5-carbamoyl-1-methyl-1H-pyrazolo[3,4-b]pyridin-6-yl}oxy)spiro[3.3]heptan-2-yl]-5-[4-(trifluoromethyl)phenyl]-1,3,4-thiadiazole-2-carboxamide] yielded an IC50 of 14.5 nM.

`NC(=O)c1cc2c(nc1O[C@H]1C[C@@]3(C[C@H](NC(=O)c4cnc5ccc(F)cc5c4)C3)C1)CCOC2` (stereo partly drawn) [Example 100, 6-fluoro-N-[(aR)-6-({3-carbamoyl-5H,7H,8H-pyrano[4,3-b]pyridin-2-yl}oxy)spiro[3.3]heptan-2-yl]quinoline-3-carboxamide] returned a half-maximal inhibitory concentration (IC50) of 36.6 nM.

Molecule `NC(=O)c1cc2c(nc1O[C@H]1C[C@@]3(C[C@H](NC(=O)c4ccc5[nH]ncc5c4)C3)C1)CCOC2` (stereo partly drawn) [Example 91, N-[(aR)-6-({3-carbamoyl-5H,7H,8H-pyrano[4,3-b]pyridin-2-yl}oxy)spiro[3.3]heptan-2-yl]-1H-indazole-5-carboxamide] registered an IC50 of 330 nM.

Molecule `CC(C)(O)COc1ccc2c(C(=O)N[C@H]3CC4(C3)C[C@H](Oc3c(C(N)=O)cnn3CCCN)C4)cnn2c1C1CC1` (stereo partly drawn) [Example 28, 1-(3-aminopropyl)-5-({(aR)-6-[7-cyclopropyl-6-(2-hydroxy-2-methylpropoxy)pyrazolo [1,5-a]pyridine-3-amido]spiro[3.3]heptan-2-yl}oxy)-1H-pyrazole-4-carboxamide] gave an IC50 of 551 nM.

Molecule `NC(=O)c1cc2sccc2nc1O[C@H]1C[C@]2(C1)C[C@H](N1C(=O)CN(Cc3ccccc3)CC1=O)C2` (stereo partly drawn) [Example 86, 5-{[(aR)-6-(4-benzyl-2,6-dioxopiperazin-1-yl)spiro[3.3]heptan-2-yl]oxy}thieno[3,2-b]pyridine-6-carboxamide] yielded an IC50 of 85.9 nM.

In the case of `NC(=O)c1cn(C2CC2)nc1O[C@H]1C[C@@]2(C[C@H](NC(=O)c3nc(C(F)(F)F)n4ccccc34)C2)C1` (stereo partly drawn) [Example 58, 1-cyclopropyl-3-{[(aR)-6-[3-(trifluoromethyl)imidazo[1,5-a]pyridine-1-amido]spiro[3.3]heptan-2-yl]oxy}-1H-pyrazole-4-carboxamide], the IC50 is 204 nM.

As for `Cc1c(C(=O)N[C@H]2C[C@]3(C2)C[C@H](Oc2nc(C4CC4)sc2C(N)=O)C3)cnn1-c1ccc(C#N)cc1` (stereo partly drawn) [Example 44, 2-cyclopropyl-4-{[(aR)-6-[1-(4-cyanophenyl)-5-methyl-1H-pyrazole-4-amido]spiro[3.3]heptan-2-yl]oxy}-1,3-thiazole-5-carboxamide], half-maximal inhibition (IC50) was put at 25.2 nM.

`Cc1nc(NCC(C)C)sc1C(=O)N[C@H]1C[C@]2(C1)C[C@H](Oc1nc3c(cc1C(N)=O)COCC3)C2` (stereo partly shown) [Example 145, 4-methyl-2-[(2-methylpropyl)amino]-N-[(4s)-6-({3-carbamoyl-5H,7H,8H-pyrano[4,3-b]pyridin-2-yl}oxy)spiro[3.3]heptan-2-yl]-1,3-thiazole-5-carboxamide] gave an IC50 of 111 nM.

Regarding `CC(C)(O)COc1ccc2c(C(=O)N[C@H]3C[C@]4(C3)C[C@H](Oc3nc(-c5ccccc5)sc3C(N)=O)C4)cnn2c1C1CC1` (stereo partly drawn) [Example 18, 4-({(aR)-6-[7-cyclopropyl-6-(2-hydroxy-2-methylpropoxy)pyrazolo [1,5-a]pyridine-3-amido]spiro[3.3]heptan-2-yl}oxy)-2-phenyl-1,3-thiazole-5-carboxamide], half-maximal inhibition (IC50) required 13.4 nM.
